Drawing on ChEMBL document CHEMBL1201862, “PubChem BioAssay data set” (2004), this text covers IC50, AC50 and EC50 for 23 compounds.

One assay has as its target Nonstructural protein 1 (Influenza A virus, UniProt Q194T2). The class given is functional, Influenza A virus (A/California/07/2009(H1N1)).
In assay [1] the target is Heat shock protein HSP 90-alpha (Homo sapiens, UniProt P07900). It counts as functional, organism-based.
The target of the next assay is Paired box protein Pax-8 (Homo sapiens, UniProt Q06710). The assay is described as follows: PAX8 transcriptional activity inhibition in RMG-I – RMG-I cells, luciferase, cherry-pick, dose response (AID 687027).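 Note: luciferase reporter driven by Pax8 target thyroperoxidase promoter measured by SteadyGlo luminescence.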 The class given is functional, cell-based.
The nature of assay [2]: NIH-3T3 fibroblast cytotoxicity, dose response, cytotoxicity control, cell-based, fluorescence, Alamar Blue, secondary assay (AID 2327).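 Note: NIH-3T3 mouse fibroblasts cultured with fluconazole at 8 µg/mL.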 It counts as functional.
Assay [3] is described as follows: fluconazole-exposed Candida albicans growth modulators – fluorescence, retest, confirmation (AID 2467). The class given is functional, cell-based.
The nature of assay [4]: cells. The class given is functional, cell-based.
Assay [5] can be described thus: Trypanosoma cruzi growth suppression in host cells – NIH3T3 host cells, beta-gal luminescence, confirmation (AID 2044).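 Note: intracellular parasites grown in NIH/3T3 mouse fibroblasts as host cells; luminescent beta-galactosidase reporter signal from transgenic T. cruzi replicating inside host cells; inhibitors lower the luminescence signal.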 The class given is functional, cell-based.
Assay [6] in a line: cells. The class given is functional, cell-based. The source holds these as a separate data set.
Assay [7] can be described thus: NIH3T3 cell viability loss – ATP luminescence, mouse fibroblasts, counter-screen, dose response (AID 2010).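 Note: cells exposed to compound for about 90 hours before reading.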 The class given is functional, cell-based. On the technique in general: A counterscreen serves to expose hits that act by an unwanted route or on another target.
Assay [8] concerns the target T1, Replicative DNA helicase DnaB (Mycobacterium tuberculosis, UniProt P9WMR3).
T1 sequence (P9WMR3 whole entry): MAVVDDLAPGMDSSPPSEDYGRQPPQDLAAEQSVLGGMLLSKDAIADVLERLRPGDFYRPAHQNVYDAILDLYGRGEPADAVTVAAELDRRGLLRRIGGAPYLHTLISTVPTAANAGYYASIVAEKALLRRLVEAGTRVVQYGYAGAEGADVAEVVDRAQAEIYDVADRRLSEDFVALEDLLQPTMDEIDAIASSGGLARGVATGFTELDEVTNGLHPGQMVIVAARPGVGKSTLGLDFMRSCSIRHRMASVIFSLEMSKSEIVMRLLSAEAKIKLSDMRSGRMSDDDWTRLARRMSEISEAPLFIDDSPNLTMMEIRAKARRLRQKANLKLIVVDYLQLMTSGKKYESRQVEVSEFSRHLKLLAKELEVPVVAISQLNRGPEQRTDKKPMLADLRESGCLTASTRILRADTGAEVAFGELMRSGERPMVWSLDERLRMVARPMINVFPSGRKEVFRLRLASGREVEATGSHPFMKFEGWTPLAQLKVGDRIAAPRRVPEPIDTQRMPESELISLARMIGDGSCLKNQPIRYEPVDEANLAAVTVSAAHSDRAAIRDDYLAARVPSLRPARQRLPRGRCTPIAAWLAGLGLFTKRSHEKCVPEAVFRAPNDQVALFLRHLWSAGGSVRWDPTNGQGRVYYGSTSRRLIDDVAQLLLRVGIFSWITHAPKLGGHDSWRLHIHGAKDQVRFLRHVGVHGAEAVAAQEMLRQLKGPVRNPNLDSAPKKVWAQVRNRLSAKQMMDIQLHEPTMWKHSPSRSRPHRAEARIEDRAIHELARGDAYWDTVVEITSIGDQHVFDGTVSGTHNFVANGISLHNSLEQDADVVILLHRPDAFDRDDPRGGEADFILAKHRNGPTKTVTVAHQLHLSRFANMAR
Kind of assay: DnaB intein splicing inhibitors, dose response, biochemical, cell-free fluorescence (AID 449749). The class given is functional.

The target of a further assay is T2, Protein RecA (Mycobacterium tuberculosis, UniProt P9WHJ3).
T2 sequence (P9WHJ3 whole entry): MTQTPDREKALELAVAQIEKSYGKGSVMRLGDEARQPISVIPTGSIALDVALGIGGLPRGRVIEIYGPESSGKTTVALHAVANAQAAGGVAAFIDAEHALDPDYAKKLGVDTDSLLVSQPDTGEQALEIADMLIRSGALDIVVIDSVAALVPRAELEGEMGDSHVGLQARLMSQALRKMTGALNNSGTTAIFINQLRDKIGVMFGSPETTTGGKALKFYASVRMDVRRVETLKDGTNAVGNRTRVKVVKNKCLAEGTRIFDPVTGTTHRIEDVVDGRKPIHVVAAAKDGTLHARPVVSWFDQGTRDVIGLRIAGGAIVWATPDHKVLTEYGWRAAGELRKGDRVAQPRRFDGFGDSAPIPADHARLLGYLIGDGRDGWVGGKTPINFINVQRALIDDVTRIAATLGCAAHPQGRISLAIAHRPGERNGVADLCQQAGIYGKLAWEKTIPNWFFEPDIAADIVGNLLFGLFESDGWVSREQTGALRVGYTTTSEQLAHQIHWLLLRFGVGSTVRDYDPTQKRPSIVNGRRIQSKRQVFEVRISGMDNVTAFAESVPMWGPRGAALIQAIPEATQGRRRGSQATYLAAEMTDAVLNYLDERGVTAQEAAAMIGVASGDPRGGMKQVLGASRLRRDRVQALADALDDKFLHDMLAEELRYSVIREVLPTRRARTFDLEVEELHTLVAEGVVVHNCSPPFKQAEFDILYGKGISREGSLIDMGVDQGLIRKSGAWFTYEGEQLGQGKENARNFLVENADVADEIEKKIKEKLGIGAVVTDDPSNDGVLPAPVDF
The assay is described as follows: Fluorescence Cell-Free Homogeneous Dose Retest to Identify Inhibitors of RecA-Intein Splicing Activity. [Related pubchem assays (depositor defined):AID2097, AID2223, AID489010, AID492950]. The class given is functional.

The next assay deals with INS1. The assay is described as follows: INS-1E survival protection against cytokine death – cell-based, luminescence, retest, dose response (AID 449756).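 Note: cell death triggered by IL-1 beta plus TNF-alpha plus IFN-gamma mixture; protective hits raise ATP signal compared with cytokine alone wells.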 It counts as functional. As to conditions: Rattus norvegicus.
The nature of assay [9]: Luminescence Cell-Based Dose Retest to Confirm Inhibitors of Cancer Stem Cells. [Related pubchem assays (depositor defined):AID2717, AID2721]. The class given is functional. The following applies: Homo sapiens.
The target of the next assay is Beta-galactosidase (Escherichia coli, UniProt Q8VNN2). The assay is described as follows: Dose response counterscreen for EBI2 assay utilizing the enzyme, b-galactosidase. It counts as functional.
A short description of assay [10]: luciferase reporter signal suppression in cells – H4 neuroglioma cells, luminescence, dose response (AID 1990). The class given is functional, cell-based. (In general: Reporter assays use an easily measured gene product as a stand-in for the process of interest.)
A short description of assay [11]: Luminescence Cell-Based Dose Response HTS to Identify Inhibitors of 5'UTR Stem-Loop Driven Prion Protein mRNA Translation in H4 Neuroglioblastoma Cells. [Related pubchem assays: 1827 (Project Summary), 1813 (Primary HTS)]. The class given is functional.
A short description of assay [12]: alpha-synuclein stem-loop luciferase translation blockers – H4 neuroglioma cells, luminescence, confirmation (AID 1988). The class given is functional, cell-based.
The nature of assay [13]: reduction of Shn3 3'UTR-driven luciferase in osteoblasts – cell-based, Clone20 osteoblasts, firefly luciferase, cherry-picked, dose response (AID 624132).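 Note: firefly luciferase luminescence from reporter carrying the Shn3 3'UTR in osteoblasts.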 The class given is functional.
Assay [14] can be described thus: loss of viability in HepG2 cells – cell-based, CellTiter-Glo, cherry-picked, cytotoxicity control for Shn3 inhibitor project, dose response (AID 624134). The class given is functional. On the technique in general: Cellular ATP, detected with luciferase, serves as a proxy for viable cell number.
Assay [15] in a line: non-specific 3'UTR reporter inhibition in Clone20-Shn3RL – cell-based, Renilla luciferase, cherry-picked, counter-screen for Shn3 inhibitor project, dose response (AID 624133). The class given is functional.

The structures appear in SMILES notation. The source made the active and inactive calls. A value given as a limit tells only on which side of the number the result lay.

Sequence of Nonstructural protein 1 (Q194T2 whole entry): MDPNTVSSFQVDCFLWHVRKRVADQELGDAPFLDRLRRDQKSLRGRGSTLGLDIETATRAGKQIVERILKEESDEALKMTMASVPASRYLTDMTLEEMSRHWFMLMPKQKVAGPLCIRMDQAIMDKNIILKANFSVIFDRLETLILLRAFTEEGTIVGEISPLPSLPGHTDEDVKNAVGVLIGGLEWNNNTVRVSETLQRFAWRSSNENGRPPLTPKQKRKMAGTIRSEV
Sequence of Beta-galactosidase (Q8VNN2 whole entry): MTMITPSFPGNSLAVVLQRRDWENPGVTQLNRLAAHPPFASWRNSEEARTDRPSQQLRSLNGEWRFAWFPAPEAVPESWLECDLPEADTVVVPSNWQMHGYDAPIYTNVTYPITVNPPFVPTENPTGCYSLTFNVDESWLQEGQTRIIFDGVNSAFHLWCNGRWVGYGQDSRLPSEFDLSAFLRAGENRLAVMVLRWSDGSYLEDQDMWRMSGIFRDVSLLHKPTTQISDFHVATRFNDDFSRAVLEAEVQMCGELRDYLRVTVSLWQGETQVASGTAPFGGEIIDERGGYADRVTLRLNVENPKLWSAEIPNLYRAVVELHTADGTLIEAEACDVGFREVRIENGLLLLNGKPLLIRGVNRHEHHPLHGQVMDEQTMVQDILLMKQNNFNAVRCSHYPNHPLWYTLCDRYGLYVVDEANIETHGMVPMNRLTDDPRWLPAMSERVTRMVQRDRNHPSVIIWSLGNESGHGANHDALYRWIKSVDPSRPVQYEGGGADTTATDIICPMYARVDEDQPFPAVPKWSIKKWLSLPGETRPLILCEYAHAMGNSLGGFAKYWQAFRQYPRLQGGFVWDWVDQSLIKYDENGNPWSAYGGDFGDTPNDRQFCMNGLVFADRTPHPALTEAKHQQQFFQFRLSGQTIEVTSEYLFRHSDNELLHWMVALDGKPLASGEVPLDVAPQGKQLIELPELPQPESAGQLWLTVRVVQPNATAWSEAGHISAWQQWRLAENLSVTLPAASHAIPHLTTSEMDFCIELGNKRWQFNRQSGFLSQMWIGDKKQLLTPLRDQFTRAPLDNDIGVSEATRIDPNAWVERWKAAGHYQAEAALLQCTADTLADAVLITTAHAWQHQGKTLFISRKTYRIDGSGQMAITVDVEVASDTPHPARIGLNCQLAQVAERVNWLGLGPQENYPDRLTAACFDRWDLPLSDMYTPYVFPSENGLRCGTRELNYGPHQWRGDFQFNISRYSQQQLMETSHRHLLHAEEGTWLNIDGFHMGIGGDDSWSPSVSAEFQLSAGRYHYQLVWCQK
Sequence of Paired box protein Pax-8 (Q06710 whole entry): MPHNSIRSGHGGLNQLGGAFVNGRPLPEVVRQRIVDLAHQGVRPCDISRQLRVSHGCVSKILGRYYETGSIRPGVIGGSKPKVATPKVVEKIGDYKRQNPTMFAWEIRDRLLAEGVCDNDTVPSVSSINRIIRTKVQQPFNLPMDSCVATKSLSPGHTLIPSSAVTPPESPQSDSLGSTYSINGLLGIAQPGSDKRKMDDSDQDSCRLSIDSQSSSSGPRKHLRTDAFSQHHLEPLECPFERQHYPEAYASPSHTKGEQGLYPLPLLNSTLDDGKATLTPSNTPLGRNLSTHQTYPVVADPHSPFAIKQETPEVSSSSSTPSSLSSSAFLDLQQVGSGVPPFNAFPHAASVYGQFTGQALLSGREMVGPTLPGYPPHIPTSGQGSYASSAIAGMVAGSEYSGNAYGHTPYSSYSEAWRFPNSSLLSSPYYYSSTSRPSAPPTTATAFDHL

On to `CC(=NNC(=S)N1CCC1)c1ccccn1`, for which the half-maximal inhibitory concentration (IC50) at Nonstructural protein 1 was 2.09 µM (active). Further, the AC50 in assay [1] is 1.58 µM (active); at Paired box protein Pax-8 it was < 0.26 µM (active).
In the case of `COc1ccc(OC)c(NC(=O)C(=O)/C=C(\O)c2cc(OC)ccc2OC)c1`, the values for the EC50 in assay [2] and in [3] were 29.9 µM (inconclusive) and > 38 µM (not active), respectively.
`Cc1ccc(S(=O)(=O)N(C(=O)c2ccncc2)c2ccc(OC(=O)c3ccncc3)cc2)cc1`: the half-maximal activity concentration (AC50) in assay [1] was 1.23 µM (active).
As to `Cc1nc2ccccc2nc1N/N=C/c1ccc(O)cc1O`, the EC50 in “cells [4]” is 12.1 µM (active); in [5] it was 2.05 µM (active); in “cells [6]”, > 350 µM (not active); in [7] it was 8.31 µM (active); at Protein RecA it was > 380 µM (inconclusive). The IC50 at Nonstructural protein 1 was 14.1 µM (active). For the same compound, the AC50 in assay [8] was > 380 µM (inactive); with INS1, 0.882 µM (active).
On to `O=c1c2c3c(sc2ncn1/N=C/c1ccc([N+](=O)[O-])o1)CCCC3`, for which the AC50 in [9] was 4.45 µM (active); in [1] it was 0.637 µM (active).
With `COc1ccc(NC(=O)c2c(N)no[n+]2[O-])cc1`, the figures for the EC50 in assay [2] and in [3] were 1.6 µM (active) and 2.19 µM (active), respectively. Also, the concentration at half-maximal activity (AC50) in assay [9] was 0.754 µM (active).
As for `CC(C)=CCc1c(O)ccc(C2COc3c(CC=C(C)C)c(O)cc(O)c3C2=O)c1O` (configuration not stated), the half-maximal activity concentration (AC50) in assay [1] was 15.9 µM (active).
For `NC(=O)C1CCN(C2CC(=O)N(c3ccc(F)c(Cl)c3)C2=O)CC1` (configuration not stated), the concentration at half-maximal activity (AC50) in assay [1] is 3.04 µM (active).
In the case of `O=C(COc1ccc(Cl)cc1)N1CCN(C(=O)c2cccc(F)c2)CC1`, the IC50 at Beta-galactosidase was > 80 µM (inactive).
As for `COc1ccc2c(n1)Sc1nc3ccccc3nc1N2`, the concentration at half-maximal activity (AC50) in assay [1] was 1.96 µM (active).
For the compound `COCCNC(=O)CCCn1c(=O)c2cc(OC)c(OC)cc2n(CC(=O)NCCC2=CCCCC2)c1=O`, the results for the EC50 in assay [2] and in assay [3] were > 160 µM (inactive) and 3.16 µM (active), respectively.
For `OCc1ccc(O)c2ncccc12`, the EC50 was > 150 µM (inactive) in [2]; 0.712 µM (active) in [10]; 2.95 µM (active) in assay [11]; 1.2 µM (active) in [12]; > 38 µM (not active) in [3]. The IC50 on Nonstructural protein 1 was 10.5 µM (active). Moreover, the concentration at half-maximal activity (AC50) in the assay on INS1 was 3.37 µM (active); in assay [13], 1.66 µM (active); in [14] it was 5.94 µM (active); in assay [15], 2.24 µM (active).
Consider `O=C1CCN(Cc2ccccc2)C=C1c1ccc(Br)cc1`, for which the IC50 on Beta-galactosidase was > 80 µM (inactive).
Still for that read-out and setting: under `COc1ccccc1N1CCN(C(=O)c2cc3c(C)nc4ccccc4c3o2)CC1` stands > 80 µM (inactive).
Turning to `O=S(=O)(Cc1ccc(Cl)cc1)N1CCN(Cc2ccccc2)CC1`, the EC50 in [2] is > 160 µM (inactive); in assay [3] it was > 38 µM (not active).
Consider `O=C(COc1ccc(Br)cc1)N1CCN(S(=O)(=O)/C=C/c2ccccc2)CC1`, for which, on Beta-galactosidase, the IC50 is > 80 µM (inactive).
As for `N#C/C(=C/c1ccc(O)cc1)C(=O)NCc1ccc(Cl)cc1`, the AC50 in assay [1] is 3.08 µM (active).
Take `O=C(/C=C/c1ccccc1)N1CCN(c2c(Cl)cccc2[N+](=O)[O-])CC1`: the IC50 on Beta-galactosidase was > 80 µM (inactive).
Still for that read-out and setting: under `Cc1cccc(N2CCN(C(=O)c3cc4c(=O)[nH]c5ccccc5c4n3C)CC2)c1C` stands > 80 µM (inactive).
In the case of `CCN(CC)C1CC(=O)N(c2cccc(Cl)c2)C1=O` (configuration not stated), in assay [1], the half-maximal activity concentration (AC50) was 2.21 µM (active).
On to `CNC(=S)N1N=C(c2ccc(OC)cc2)CC1c1ccc(N(C)C)cc1` (configuration not stated), for which the IC50 at Beta-galactosidase is > 80 µM (inactive).
The same measure, in the same setting: for `Cc1ccc2oc(=O)c3cnn(CC(=O)N(CCC(C)C)Cc4ccco4)c3c2c1` the value was > 80 µM (inactive).
The same measure, in the same setting: under `CCOC(=O)C1CCN(C(=O)/C=C/c2ccc(OC)cc2)CC1` stands > 80 µM (inactive).

For orientation: IC50 means the concentration that gives 50% inhibition. Broadly, the AC50 is the concentration giving half of the maximal activity seen. The EC50 is the midpoint of the concentration-response curve.
